Assay results: US10973832B2, “Muscarinic M1 receptor agonists” (Heptares Therapeutics Limited, priority 2011, dated 2021)
pEC50: −log10 of the molar value.

How the values were obtained:
Male Wistar rats = test: Novel object recognition; assay type: in vivo
Description: The novel object recognition paradigm is based on the greater spontaneous exploration of a novel object, compared with a familiar object, shown by rodents (Ennaceur and Delacour, 1988). […] Male Wistar rats were assessed for cognitive ability in a test apparatus comprising an open-field arena placed in a sound-attenuated room under dimmed lighting. Images of the open-field were captured by digital camera, and viewed on a monitor in an adjoining room. Each rat was subjected to the procedure separately and care taken to remove any olfactory/taste cues by cleaning the arena and test objects with alcohol between trials and rats. All tests are video scored blind to treatment. Following a 10-minute habituation period, each rat was placed into the test arena in the presence of two identical objects (plastic shapes). Each rat was placed facing the same direction at the same position in the arena, and the time spent actively exploring the objects during a 5-minute training period (T1) was recorded. The rat is returned to its home cage between tests. After 24 hours, each rat was again placed in the test arena for 5 minutes (T2) in the presence of one of the familiar objects and a novel object, and the time spent exploring both objects again recorded. The presentation order and position of the objects (left/right) was randomized between rats to prevent bias from order or place preference. Doses of 3, 10 or 30 mg/kg of test compound were administered by oral gavage 90 minutes prior to training (n=8). Donepezil (0.1 mg/kg) and galanthamine (3 mg/kg) were administered via intraperitoneal injection 60 minutes prior to training. Vehicle-treated controls were employed for comparison.

[1] = target: T1, human muscarinic M3 receptor (Homo sapiens, UniProt P20309); test: Phospho-ERK1/2 assay, muscarinic M3; assay type: cell-based; settings: for EC50: CHO cells expressing human M3, phospho-ERK1/2 Alphascreen, read-out: pEC50 M3 (converted); for Emax: CHO, read-out: % Emax cf. ACh (M3)
T1 construct: expressed in transfected cells
T1 sequence (P20309 whole entry): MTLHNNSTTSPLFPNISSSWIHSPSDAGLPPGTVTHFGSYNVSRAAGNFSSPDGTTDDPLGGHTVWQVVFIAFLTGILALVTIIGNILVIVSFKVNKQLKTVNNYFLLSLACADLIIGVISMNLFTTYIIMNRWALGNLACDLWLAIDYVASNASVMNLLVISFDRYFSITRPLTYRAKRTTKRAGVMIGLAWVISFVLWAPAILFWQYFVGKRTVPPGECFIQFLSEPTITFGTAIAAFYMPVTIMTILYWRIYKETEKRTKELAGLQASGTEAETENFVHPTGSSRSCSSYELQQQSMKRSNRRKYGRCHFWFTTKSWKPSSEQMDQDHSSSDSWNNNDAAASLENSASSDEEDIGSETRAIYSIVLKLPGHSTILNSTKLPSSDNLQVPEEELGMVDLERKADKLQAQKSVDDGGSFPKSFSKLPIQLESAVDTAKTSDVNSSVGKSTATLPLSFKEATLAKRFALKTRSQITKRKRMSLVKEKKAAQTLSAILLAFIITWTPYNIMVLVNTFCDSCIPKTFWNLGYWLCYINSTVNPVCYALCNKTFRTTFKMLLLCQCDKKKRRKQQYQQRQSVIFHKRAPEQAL
Description: (§1) Functional assays were performed using the Alphascreen Surefire phospho-ERK1/2 assay (Crouch & Osmond, Comb. Chem. High Throughput Screen, 2008). ERK1/2 phosphorylation is a downstream consequence of both Gq/11 and Gi/o protein coupled receptor activation, making it highly suitable for the assessment of M1, M3 (Gq/11 coupled) and M2, M4 receptors (Gi/o coupled), rather than using different assay formats for different receptor subtypes. CHO cells stably expressing the human muscarinic M1, M2, M3 or M4 receptor were plated (25K/well) onto 96-well tissue culture plates in MEM-alpha+10% dialysed FBS. Once adhered, cells were serum-starved overnight. Agonist stimulation was performed by the addition of 5 μL agonist to the cells for 5 min (37° C.). Media was removed and 50 μL of lysis buffer added. After 15 min, a 4 μL sample was transferred to 384-well plate and 7 μL of detection mixture added. Plates were incubated for 2 h with gentle agitation in the dark and then read on a PHERAstar plate reader.
(§2) pEC50 and Emax figures were calculated from the resulting data for each receptor subtype.

[2] = target: T2, human muscarinic M4 receptor (Homo sapiens, UniProt P08173); test: Phospho-ERK1/2 assay, muscarinic M4; assay type: cell-based; settings: for EC50: CHO cells expressing human M4, phospho-ERK1/2 Alphascreen, read-out: pEC50 M4 (converted); for Emax: CHO, read-out: % Emax cf. ACh (M4)
T2 construct: expressed in transfected cells
T2 sequence (P08173 1-479): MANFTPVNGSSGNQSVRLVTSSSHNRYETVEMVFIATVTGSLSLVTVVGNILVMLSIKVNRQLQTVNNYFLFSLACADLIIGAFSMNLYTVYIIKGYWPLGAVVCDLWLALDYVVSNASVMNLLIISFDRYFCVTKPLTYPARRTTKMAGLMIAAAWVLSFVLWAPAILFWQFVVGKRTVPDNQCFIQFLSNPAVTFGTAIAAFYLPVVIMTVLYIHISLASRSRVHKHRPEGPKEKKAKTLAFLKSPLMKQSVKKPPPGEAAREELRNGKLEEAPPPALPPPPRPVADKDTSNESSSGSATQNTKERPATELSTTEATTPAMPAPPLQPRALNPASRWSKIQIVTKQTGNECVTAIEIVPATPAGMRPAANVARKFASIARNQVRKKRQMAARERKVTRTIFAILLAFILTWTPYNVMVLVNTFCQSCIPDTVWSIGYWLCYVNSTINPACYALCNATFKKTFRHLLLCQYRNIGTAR
Description: as §1, §2

[3] = target: T3, human muscarinic M1 receptor (Homo sapiens, UniProt P11229); test: Phospho-ERK1/2 assay, muscarinic M1; assay type: cell-based; settings: for EC50: CHO cells expressing human M1, phospho-ERK1/2 Alphascreen, read-out: pEC50 M1 (converted); for Emax: CHO, read-out: % Emax cf. ACh (M1)
T3 sequence (P11229 1-460): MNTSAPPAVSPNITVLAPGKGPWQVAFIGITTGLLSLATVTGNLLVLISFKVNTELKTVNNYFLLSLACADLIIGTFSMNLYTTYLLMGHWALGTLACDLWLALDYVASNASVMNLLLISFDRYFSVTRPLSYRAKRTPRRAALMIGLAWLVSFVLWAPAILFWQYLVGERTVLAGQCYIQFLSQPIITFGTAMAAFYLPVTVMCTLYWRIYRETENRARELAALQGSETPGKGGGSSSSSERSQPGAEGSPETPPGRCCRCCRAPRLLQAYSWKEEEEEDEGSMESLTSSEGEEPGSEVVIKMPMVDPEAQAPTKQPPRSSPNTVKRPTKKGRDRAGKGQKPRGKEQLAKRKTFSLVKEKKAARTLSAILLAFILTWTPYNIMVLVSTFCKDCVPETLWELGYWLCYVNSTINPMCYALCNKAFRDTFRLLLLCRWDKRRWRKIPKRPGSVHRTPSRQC
Description: as §1, §2

[4] = test system: CA1 region of rat hippocampal slices; test: CA1 cell firing (fEPSP amplitude); assay type: cell-based; settings: five point cumulative concentration-response, 6 slices averaged
Description: Rat hippocampal slices of […] thickness were cut in chilled (<4° C.) artificial cerebrospinal fluid (aCSF, composition in mM: NaCl 127, KCl 1.6, KH2PO4 1.24, MgSO4 1.3, CaCl2 2.4, NaHCO3 26 and D-glucose 10) using vibratome. Slices were maintained in oxygenated (95% O2/5% CO2) aCSF at room temperature for at least 1 hr prior to electrophysiological recording, after which they were transferred to an interface chamber and constantly perfused with warmed (30° C.) oxygenated aCSF at a flow rate of 1.5-3 ml·min−1. Schaffer collaterals were then stimulated (1-20 V, 0.1 ms pulse width, 0.033 Hz) with a concentric bipolar electrode to evoke field excitatory post synaptic potentials (fEPSPs) recorded from the stratum radiatum of the CA1 region.
Experiments were performed to examine the effect of compound compared to […] carbachol (CCh), on the amplitude of fEPSPs in the CA1 region of rat hippocampal slices. 1 μM CCh was initially applied until steady-state, followed by wash, before performing a five point cumulative concentration-response to compound. Each compound was tested on 6 slices and results averaged. Drug preparation; compound was dissolved in 100% DMSO at a stock concentration of 30 mM, and diluted according to requirements, carbamoylcholine chloride (CCh) was purchased from Sigma (Cat #C4382) and dissolved at a stock concentration of 1 mM in ddH2O.

[5] = target: T4, human muscarinic M2 receptor (Homo sapiens, UniProt P08172); test: Phospho-ERK1/2 assay, muscarinic M2; assay type: cell-based; settings: for EC50: CHO cells expressing human M2, phospho-ERK1/2 Alphascreen, read-out: pEC50 M2 (converted); for Emax: CHO, read-out: % Emax cf. ACh (M2)
T4 sequence (P08172 1-466): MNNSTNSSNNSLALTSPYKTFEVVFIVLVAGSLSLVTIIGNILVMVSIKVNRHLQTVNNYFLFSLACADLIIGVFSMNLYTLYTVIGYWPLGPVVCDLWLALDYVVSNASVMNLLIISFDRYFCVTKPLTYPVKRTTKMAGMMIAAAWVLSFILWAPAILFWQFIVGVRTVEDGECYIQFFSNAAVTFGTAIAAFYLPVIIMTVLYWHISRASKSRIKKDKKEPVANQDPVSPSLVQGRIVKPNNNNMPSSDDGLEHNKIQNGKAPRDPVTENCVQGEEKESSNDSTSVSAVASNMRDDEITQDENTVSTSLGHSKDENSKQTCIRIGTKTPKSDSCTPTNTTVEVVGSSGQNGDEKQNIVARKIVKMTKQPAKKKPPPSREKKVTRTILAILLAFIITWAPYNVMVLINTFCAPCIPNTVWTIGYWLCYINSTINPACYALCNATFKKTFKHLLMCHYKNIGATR
Description: as §1, §2

| EC50 [1] | Emax [1] | EC50 [2] | Emax [2] | EC50 [3] | Emax [3] | pEC50 [4] | EC50 [5] | Emax [5] | SMILES | novel object recognition memory vs vehicle-treated controls (Male Wistar rats; 0.1 mg/kg intraperitoneal 60 minutes prior to training) | novel object recognition memory vs vehicle-treated controls (Male Wistar rats; 3 mg/kg intraperitoneal 60 minutes prior to training, p<0.05) |
| --- | --- | --- | --- | --- | --- | --- | --- | --- | --- | --- | --- |
| – | – | – | – | – | – | – | – | – | COc1cc2c(cc1OC)C(=O)C(CC1CCN(Cc3ccccc3)CC1)C2 (centres unmarked) [Donepezil, donepezil] | without effect on novel object recognition | – |
| > 20 µM | 9% | 0.851 µM | 89% | 0.0457 µM | 106% | 5.03 | > 20 µM | 13% | CCOC(=O)N1CCCC(N2CCC(F)(C(=O)NCC(C)C)CC2)CC1 (centres unmarked) [Example 40, ethyl 4-(4-fluoro-4-((2-methylpropyl)carbamoyl)piperidin-1-yl)azepane-1-carboxylate] | – | – |
| – | – | – | – | – | – | – | – | – | COc1ccc2c3c1O[C@H]1C[C@@H](O)C=C[C@@]31CCN(C)C2 [galanthamine] | – | significantly improved novel object recognition memory |
| > 20 µM | 33% | 1.05 µM | 76% | 0.0851 µM | 113% | 5.39 | > 20 µM | 10% | CCOC(=O)N1CCCC(N2CCC(C(=O)NCC(C)C)CC2)CC1 (centres unmarked) [Example 6, ethyl 4-(4-((2-methylpropyl)carbamoyl)piperidin-1-yl)azepane-1-carboxylate] | – | – |
| > 20 µM | 4% | 0.282 µM | 97% | 0.0525 µM | 132% | – | > 20 µM | 19% | CCOC(=O)N1CCCC(N2CCC(C(=O)NC3(CC)CCC3)CC2)CC1 (centres unmarked) [Example 74] | – | – |
| > 20 µM | 4% | 0.501 µM | 104% | 0.126 µM | 114% | – | > 20 µM | 48% | CCOC(=O)N1CCC[C@H](N2CCC(C(=O)NC(C)(C)C)CC2)CC1 [Example 67, ethyl (4S)-4-[4-(tert-butylcarbamoyl)piperidin-1-yl]azepane-1-carboxylate] | – | – |
| > 20 µM | 14% | 0.191 µM | 80% | 0.0813 µM | 111% | – | > 20 µM | 2% | CCOC(=O)N1CCCC(N2CCC(C(=O)NC(C)(C)C)CC2)CC1 (centres unmarked) [Example 7, ethyl 4-(4-((1,1-dimethylethyl)carbamoyl)piperidin-1-yl)azepane-1-carboxylate] | – | – |
| > 20 µM | 0% | 2.45 µM | 66% | 0.275 µM | 94% | – | > 20 µM | 12% | CCOC(=O)N1CCC[C@@H](N2CCC(C(=O)NC3(C)CCC3)CC2)CC1 [Example 66, ethyl (4R)-4-{4-[(1-methylcyclobutyl)carbamoyl]piperidin-1-yl}azepane-1-carboxylate] | – | – |
| > 20 µM | 6% | 0.229 µM | 114% | 0.049 µM | 124% | – | > 20 µM | 15% | CCOC(=O)N1CCCC(N2CCC(F)(C(=O)NC(C)(C)C3CC3)CC2)CC1 (centres unmarked) [Example 54, ethyl 4-(4-fluoro-4-((2-cyclopropylpropan-2-yl)carbamoyl)piperidin-1-yl)azepane-1-carboxylate] | – | – |
| > 20 µM | 0% | 0.417 µM | 51% | 0.0427 µM | 115% | – | > 20 µM | 5% | CCOC(=O)N1CCCC(N2CCC(C)(C(=O)NC3(C)CCC3)CC2)CC1 (centres unmarked) [Example 78, ethyl 4-{4-methyl-4-[(1-methylcyclobutyl)carbamoyl]piperidin-1-yl}azepane-1-carboxylate] | – | – |
